Series [1] has as its system recombinant NL4-3 virus (nef section replaced with Renilla luciferase gene) in MT-2 cells. In words: HIV cell culture assay (antiviral activity, luciferase readout). As to conditions: Renilla, NL43, MT-2 cells infected for 4-5 days with recombinant NL4-3 Renilla luciferase virus. It counts as cell-based. A digest of the protocol:
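MT-2 cells were infected for 4-5 days with reporter virus made by transfecting the recombinant NL4-3 proviral clone into 293T cells, in the presence of serial compound dilutions. Luciferase activity was read with a live-cell substrate. EC50 came from the exponential median effect equation, (Fa)=1/[1+(ED50/drug conc.)m].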

The nature of series [2]: Compound cytotoxicity, XTT-based colorimetric assay. It counts as cell-based. Conditions: human; uninfected MT2 cells, day 4, XTT; read-out: CC50. Summed up: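 Uninfected MT2 cells, antiviral-assay protocol without virus; XTT colorimetric readout day 4; CC50 reported.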

Consider 11 compounds from patent publication US12594276B2, “Inhibitors of human immunodeficiency virus replication” (ViiV Healthcare UK (No.5) Limited, priority 2024, dated 2026).

The structures appear in SMILES notation. A value given as a limit tells only on which side of the number the result lay.

As usually defined, the EC50 is the concentration giving half of the maximal effect. A word on the CC50: it is the concentration at which the toxic effect on the cells reaches its halfway point. Turning to `COCCCn1nc(NS(C)(=O)=O)c2c(Cl)ccc(-n3c([C@H](Cc4cc(F)cc(F)c4)NC(=O)Cn4nc(C(F)F)c5c4C(F)(F)[C@@H]4C[C@H]54)nc4nc(C5CCC(F)(F)CC5)cc(NCCC#N)c4c3=O)c21` (atropisomer, axis not shown; (P)) [Example 433, N-[(1S)-1-[(3P)-3-[4-chloro-3-methanesulfonamido-1-(3-methoxypropyl)-1H-indazol-7-yl]-5-[(2-cyanoethyl)amino]-7-(4,4-difluorocyclohexyl)-4-oxo-3H,4H-pyrido[2,3-d]pyrimidin-2-yl]-2-(3,5-difluorophenyl)ethyl]-2-[(2S,4R)-9-(difluoromethyl)-5,5-difluoro-7,8-diazatricyclo[4.3.0.0^2,^4]nona-1(6),8-dien-7-yl]acetamide], the concentration for a half-maximal effect (EC50) in series [1] was determined as 0.037 nM. Besides, the CC50 at 4 days in series [2] is over 20 nM.
For `CC(C)[C@H]1CN(CCn2nc(NS(C)(=O)=O)c3c(Cl)ccc(-n4c([C@H](Cc5cc(F)cc(F)c5)NC(=O)Cn5nc(C6CC6)c6c5C[C@@H]5C[C@H]65)nc5nc(C6CCC(F)(F)CC6)ccc5c4=O)c32)CCO1` (atropisomer, axis not shown; (P)) [Example 434, N-[(1S)-1-[(3P)-3-(4-chloro-3-methanesulfonamido-1-{2-[(2S)-2-(propan-2-yl)morpholin-4-yl]ethyl}-1H-indazol-7-yl)-7-(4,4-difluorocyclohexyl)-4-oxo-3H,4H-pyrido[2,3-d]pyrimidin-2-yl]-2-(3,5-difluorophenyl)ethyl]-2-[(2S,4S)-9-cyclopropyl-7,8-diazatricyclo[4.3.0.0^2,^4]nona-1(6),8-dien-7-yl]acetamide] the same measures were 0.01 nM and over 20 nM.
For `CC(C)[C@@H]1CN(CCn2nc(NS(C)(=O)=O)c3c(Cl)ccc(-n4c([C@H](Cc5cc(F)cc(F)c5)NC(=O)Cn5nc(C6CC6)c6c5C[C@@H]5C[C@H]65)nc5nc(C6CCC(F)(F)CC6)ccc5c4=O)c32)CCO1` (atropisomer, axis not shown; (P)) [Example 435, N-[(1S)-1-[(3P)-3-(4-chloro-3-methanesulfonamido-1-{2-[(2R)-2-(propan-2-yl)morpholin-4-yl]ethyl}-1H-indazol-7-yl)-7-(4,4-difluorocyclohexyl)-4-oxo-3H,4H-pyrido[2,3-d]pyrimidin-2-yl]-2-(3,5-difluorophenyl)ethyl]-2-[(2S,4S)-9-cyclopropyl-7,8-diazatricyclo[4.3.0.0^2,^4]nona-1(6),8-dien-7-yl]acetamide] the same measures were 0.009 nM and over 20 nM.
For `Cc1cc(C2CCC(F)(F)CC2)nc2nc([C@H](Cc3cc(F)cc(F)c3)NC(=O)Cn3nc(C4CC4)c4c3C[C@@H]3C[C@H]43)n(-c3ccc(Cl)c4c(NS(C)(=O)=O)nn(CCN5C[C@@H](F)C[C@H](F)C5)c34)c(=O)c12` (atropisomer, axis not shown; (P)) [Example 444, N-[(1S)-1-[(3P)-3-(4-chloro-1-{2-[(3S,5S)-3,5-difluoropiperidin-1-yl]ethyl}-3-methanesulfonamido-1H-indazol-7-yl)-7-(4,4-difluorocyclohexyl)-5-methyl-4-oxo-3H,4H-pyrido[2,3-d]pyrimidin-2-yl]-2-(3,5-difluorophenyl)ethyl]-2-[(2S,4S)-9-cyclopropyl-7,8-diazatricyclo[4.3.0.0^2,^4]nona-1(6),8-dien-7-yl]acetamide] the same measures were 0.009 nM and over 20 nM.
In the case of `Cc1cc(C2CCC(F)(F)CC2)nc2nc([C@H](Cc3cc(F)cc(F)c3)NC(=O)Cn3nc(C4CC4)c4c3C[C@@H]3C[C@H]43)n(-c3ccc(Cl)c4c(NS(C)(=O)=O)nn(CCN5CC6(CCC6)OC6(CCC6)C5)c34)c(=O)c12` (atropisomer, axis not shown; (P)) [Example 445, N-[(1S)-1-[(3P)-3-[4-chloro-3-methanesulfonamido-1-(2-{5-oxa-11-azadispiro[3.1.3^6.3^4]dodecan-11-yl}ethyl)-1H-indazol-7-yl]-7-(4,4-difluorocyclohexyl)-5-methyl-4-oxo-3H,4H-pyrido[2,3-d]pyrimidin-2-yl]-2-(3,5-difluorophenyl)ethyl]-2-[(2S,4S)-9-cyclopropyl-7,8-diazatricyclo[4.3.0.0^2,^4]nona-1(6),8-dien-7-yl]acetamide], the EC50 in series [1] was determined as 0.015 nM. In series [2], the CC50 at 4 days is over 20 nM.
With `Cc1cc(C2CCC(F)(F)CC2)nc2nc([C@H](Cc3cc(F)cc(F)c3)NC(=O)Cn3nc(C(F)F)c4c3C(F)(F)[C@@H]3C[C@H]43)n(-c3ccc(Cl)c4c(NS(C)(=O)=O)nn(CCN5C[C@@H](F)C[C@H](F)C5)c34)c(=O)c12` (atropisomer, axis not shown; (P)) [Example 446, N-[(1S)-1-[(3P)-3-(4-chloro-1-{2-[(3S,5S)-3,5-difluoropiperidin-1-yl]ethyl}-3-methanesulfonamido-1H-indazol-7-yl)-7-(4,4-difluorocyclohexyl)-5-methyl-4-oxo-3H,4H-pyrido[2,3-d]pyrimidin-2-yl]-2-(3,5-difluorophenyl)ethyl]-2-[(2S,4R)-9-(difluoromethyl)-5,5-difluoro-7,8-diazatricyclo[4.3.0.0^2,^4]nona-1(6),8-dien-7-yl]acetamide], the EC50 in series [1] was 0.009 nM. Also, the half-maximal cytotoxic concentration (CC50) at 4 days in series [2] was over 20 nM.
For `COCCCn1nc(NS(C)(=O)=O)c2c(Cl)ccc(-n3c([C@H](Cc4cc(F)cc(F)c4)NC(=O)Cn4nc(C(F)F)c5c4C(F)(F)[C@@H]4C[C@H]54)nc4nc(C5CCC(F)(F)CC5)cc(CN5C[C@@H](C)O[C@@H](C)C5)c4c3=O)c21` (atropisomer, axis not shown; (P)) [Example 448, N-[(1S)-1-[(3P)-3-[4-chloro-3-methanesulfonamido-1-(3-methoxypropyl)-1H-indazol-7-yl]-7-(4,4-difluorocyclohexyl)-5-{[(2R,6S)-2,6-dimethylmorpholin-4-yl]methyl}-4-oxo-3H,4H-pyrido[2,3-d]pyrimidin-2-yl]-2-(3,5-difluorophenyl)ethyl]-2-[(2S,4R)-9-(difluoromethyl)-5,5-difluoro-7,8-diazatricyclo[4.3.0.0^2,4]nona-1(6),8-dien-7-yl]acetamide] the same measures were 0.009 nM and over 20 nM.
Consider `COCCCn1nc(NS(C)(=O)=O)c2c(Cl)ccc(-n3c([C@H](Cc4cc(F)cc(F)c4)NC(=O)Cn4nc(C(F)F)c5c4C(F)(F)[C@@H]4C[C@H]54)nc4nc(C5CCC(F)(F)CC5)cc(CF)c4c3=O)c21` (atropisomer, axis not shown; (P)) [Example 449, N-[(1S)-1-[(3P)-3-[4-chloro-3-methanesulfonamido-1-(3-methoxypropyl)-1H-indazol-7-yl]-7-(4,4-difluorocyclohexyl)-5-(fluoromethyl)-4-oxo-3H,4H-pyrido[2,3-d]pyrimidin-2-yl]-2-(3,5-difluorophenyl)ethyl]-2-[(2S,4R)-9-(difluoromethyl)-5,5-difluoro-7,8-diazatricyclo[4.3.0.0^2,4]nona-1(6),8-dien-7-yl]acetamide], for which, in series [1], the EC50 turned out to be 0.009 nM. Besides, the half-maximal cytotoxic concentration (CC50) at 4 days in series [2] was over 20 nM.
Consider `Cc1cc(C2CCC(F)(F)CC2)nc2nc([C@H](Cc3cc(F)cc(F)c3)NC(=O)Cn3nc(C(F)F)c4c3C(F)(F)[C@@H]3C[C@H]43)n(-c3ccc(Cl)c4c(NS(C)(=O)=O)nn(CCN5C[C@@H](C)OC(C)(C)C5)c34)c(=O)c12` (atropisomer, axis not shown; (P)) [Example 454, N-[(1S)-1-[(3P)-3-(4-chloro-3-methanesulfonamido-1-{2-[(6R)-2,2,6-trimethylmorpholin-4-yl]ethyl}-1H-indazol-7-yl)-7-(4,4-difluorocyclohexyl)-5-methyl-4-oxo-3H, 4H-pyrido[2,3-d]pyrimidin-2-yl]-2-(3,5-difluorophenyl)ethyl]-2-[(2S,4R)-9-(difluoromethyl)-5,5-difluoro-7,8-diazatricyclo[4.3.0.0^2,^4]nona-1(6),8-dien-7-yl]acetamide], for which the concentration for a half-maximal effect (EC50) in series [1] was determined as 0.01 nM. Also, the cytotoxic concentration (CC50) at 4 days in series [2] was over 20 nM.
For `Cc1cc(C2CCC(F)(F)CC2)nc2nc([C@H](Cc3cc(F)cc(F)c3)NC(=O)Cn3nc(C4CC4)c4c3C[C@@H]3C[C@H]43)n(-c3ccc(Cl)c4c(NS(C)(=O)=O)nn(CCN5CCO[C@@H](C(C)C)C5)c34)c(=O)c12` (atropisomer, axis not shown; (P)) [Example 456, N-[(1S)-1-[(3P)-3-(4-chloro-3-methanesulfonamido-1-{2-[(2S)-2-(propan-2-yl)morpholin-4-yl]ethyl}-1H-indazol-7-yl)-7-(4,4-difluorocyclohexyl)-5-methyl-4-oxo-3H,4H-pyrido[2,3-d]pyrimidin-2-yl]-2-(3,5-difluorophenyl)ethyl]-2-[(2S,4S)-9-cyclopropyl-7,8-diazatricyclo[4.3.0.0^2,^4]nona-1(6),8-dien-7-yl]acetamide] the same measures were 0.01 nM and over 20 nM.
For `Cc1cc(C2CCC(F)(F)CC2)nc2nc([C@H](Cc3cc(F)cc(F)c3)NC(=O)Cn3nc(C4CC4)c4c3C[C@@H]3C[C@H]43)n(-c3ccc(Cl)c4c(NS(C)(=O)=O)nn(CCN5CCO[C@H](C(C)C)C5)c34)c(=O)c12` (atropisomer, axis not shown; (P)) [Example 457, N-[(1S)-1-[(3P)-3-(4-chloro-3-methanesulfonamido-1-{2-[(2R)-2-(propan-2-yl)morpholin-4-yl]ethyl}-1H-indazol-7-yl)-7-(4,4-difluorocyclohexyl)-5-methyl-4-oxo-3H,4H-pyrido[2,3-d]pyrimidin-2-yl]-2-(3,5-difluorophenyl)ethyl]-2-[(2S,4S)-9-cyclopropyl-7,8-diazatricyclo[4.3.0.0^2,^4]nona-1(6),8-dien-7-yl]acetamide] the same measures were 0.007 nM and over 20 nM.
